# Legend:
# [1] = system: mouse mesencephalon cells; test: Mesencephalon cells cultured on L1-coated plates, stained for dopamine; format: cell-based; settings: plates coated with laminin, 7 days
# Procedure: An experiment was performed to further elucidate the activity of L1 with CNS nerve tissue. Specifically, aliquot samples of mouse mesencephalon cells were plated and cultured on four separate plates having media prepared as follows: the first control plate was coated with poly-L-lysine alone; a second plate was coated with poly-L-lysine and L1; a third control plate was coated with poly-L-lysine and laminin; and a fourth plate was coated with poly-L-lysine, laminin and L1. All plates received aliquot amounts of cells and were incubated under identical conditions. After 7 days, the plates were all stained for the presence of dopamine and thereafter observed.
# NMDA receptor = test: NMDA receptor-mediated EPSPs in hippocampal slices; format: cell-based, rat; settings: 30 μM, in the presence of CNQX
# Procedure: NMDA receptor-mediated EPSP's were isolated by applying 30 μM of the non-NMDA blocker 6-cyano-7-nitroquinoxaline-2,3-dione (CNQX; Tocris) starting 20 minutes prior to the application of antibodies or glycopeptides.
# [2] = system: pyramidal neurons in the CA1 region of rat hippocampal slices; test: Long term potentiation (LTP) induced by theta burst stimulation in hippocampal slices; format: cell-based; settings: perfusion of 10 μM
# Procedure: Transverse hippocampal slices (400 μm) from halothane-anaesthetized male Wistar rats (180-220 g) were prepared using standard techniques. Slices were maintained in an interface chamber and initially allowed to recover for 45 min. in a hyperosmolar (320 mOsm/kg) artificial cerebrospinal fluid (ACSF) at room temperature. The bath temperature was then raised to 30° C. and the medium was changed to a normotonic ACSF (307 mOsm/kg) containing (in mM): NaCl, 124.0; KCl, 2.5; MgSO24, 2.0: CaCl2, 2.5; KH2PO4, 1.25; NaHCO3, 26.0; glucose, 10; sucrose, 4; bubbled with 95% O2/5% CO2 (pH 7.4); perfusion rate: 0.75 ml/min. The Schaffer collateral/commissural fibers were stimulated by twisted platinum-iridium wires (50 μm diameter) placed in the stratum radiatum of the CA1 region. Test stimuli consisted in monophasic impulses of 100 μs duration every 30 seconds and the stimulus strength was adjusted to obtain 30% of the maximal EPSP amplitude (maximal EPSP without superimposed population spike). EPSP's were recorded from the CA1 stratum radiatum by means of 2 glass micropipettes (2 M NaCl, 1-5 MΩ) positioned about […] apart from the stimulation electrode on each side. […]
# [3] = system: mesencephalic neurons (DBH+); test: Survival and neurite outgrowth of DBH+ mesencephalic neurons; format: cell-based, rat; settings: DBH+ neurons after 7 days in vitro, mean ± SEM
# Procedure: Soluble L1 was made in COS cells as a recombinant L1-Fc fusion protein by the procedure described in Neuron 14:57-66, 1995. The recombinant protein was purified by Protein A affinity chromatography, and was used either as a substrate coated onto plastic or as a soluble molecule added to the culture medium at approximately 1-10 μg/ml. Neurite outgrowth and survival of mesencephalic neurons from day 17 rat embryos were examined in culture after 7 days in vitro maintenance. Dopaminergic neurons were recognized by immunostaining for dopamine-β-hydroxylase (DBH) and quantified using IBAS morphometric equipment. Cultures with added soluble L1-Fc were maintained on poly-DL-ornithine (PORN) and substrate-coated L1-Fc was added on top of previously coated PORN (under conditions described in Appel et al, J. Neuroscience 13:4764-4775, 1993). NCAM-Fc was used as a control.
# small cerebellar neurons = test: Neurite outgrowth of small cerebellar neurons on substrate-coated L1 monoclonal antibodies; format: cell-based; settings: neurons on L1 and antibody 557.B6
# From the text: To determine the domains of neural cell adhesion molecule L1 involved in neurite outgrowth, monoclonal antibodies against L1 were generated and their effects on neurite outgrowth of small cerebellar neurons in culture investigated. […] These observations indicate for the first time a distinct site on cell surface-bound L1 as a prominent signal transducing domain through which the recognition events appear to be funnelled to trigger neurite outgrowth, increase turnover of inositol phosphates and elevate intracellular levels of Ca^2+.
# hippocampal neurons = test: Neurite outgrowth of hippocampal neurons in coculture with L929 transfectants; format: cell-based, rat; settings: CHL1-transfected L929 cells, 11-12 h coculture
# Procedure: In addition to the studies conducted and reviewed above, further experiments were conducted withy CHL1 to define its role in neurite outgrowth and the parameters of its action. Thus and as depicted and described earlier with reference to FIGS. 28A-C, hippocampal neurons were co-cultured with L929 transfectants and L929 parental cells. Particularly, hippocampal neurons derived from rats of embryonal day 18 were cultured in subconfluent monolayers of L929-transfectants or parental L929 cells. After 11-12 h of coculture the cells were fixed and labeled with monoclonal antibody 412 (recognizing the HNK-1 carbohydrate epitope) or a polyclonal antibody against NCAM. For measurement of the total neurite length only the longest neurite per each branch was determined due to the highly branched character of the neurons in these cultures. The results of the experiments are given below with letter reference to the respective figures within FIG. 28. […] Neurons were cocultured with CHL1-transfectants (CHL1) or parental L929 cells (L929) with (+AB) or without polyclonal antibodies against recombinant CHL1 (500 μg/ml of purified IgG, added 45 min after plating) and on L1-transfectants. The mean total neurite length of 4-5 independent experiments is shown. Error bars are standard error of the mean. (B) Different CHL1 lines promote neurite outgrowth better than L1. […]
# cerebellar neurons = test: Neurite outgrowth of small cerebellar neurons in coculture with L929 transfectants; format: cell-based, mouse; settings: CHL1-transfected L929 cells, 20 h
# Procedure: CHL1 activity was also tested with cerebellar neurons as set forth with reference to FIG. 29. Thus, cerebellar neurons derived from 6-7 day old mice were cultured for 20 h on CHL1-transfectants (CHL1), CHL1-transfected non-expressing L929 cells (Mock), parental L929, or L1-transfectants (L1). The results are likewise set forth in paragraphs that correspond in designation to the sub-figures within FIG. 29. […] The mean of total neurite length of three experiments is shown. Error bars are standard error of the mean. (B) CHL1 promotes neurite outgrowth also of small cerebellar neurons better than L1. The total neurite length is given as percent of L929 cells as a control (ctr). Error bars are standard error of the mean. (C) Increase of neurite outgrowth of cerebellar neurons by CHL1 affects all size classes of neurites. Cumulative frequency of distribution plot of the total neurite length of the percentage of neurons with neurites longer than or equal to a certain length x (vertical axis) was plotted as a function of neurite length x (horizontal axis).
molecule,measurement,setting,value
laminin,neurite outgrowth and cell number,[1],"greater neurite outgrowth, but not more cells than those coated with L1"
"N[C@H](CCCP(=O)(O)O)C(=O)O [D-AP5, D(−)-2-amino-5-phosphonopentanoic acid]",NMDA receptor-mediated EPSPs,NMDA receptor,completely suppressed
same,induction of LTP,[2],totally prevented
"soluble L1: recombinant L1-Fc fusion protein made in COS cells, added to the culture medium at 1-10 μg/ml",number of neurons,[3]; per unit field,98 ± 7
same,length of neurites (total neurite length per neuron),[3],135 ± 27 μm
pertussis toxin,inhibition of neurite outgrowth,small cerebellar neurons,inhibit neurite outgrowth on L1 and antibody 557.B6
"CHL1: close homolog of L1, presented by CHL1-transfected L929 cells (protein, murine, close homolog of L1, presented by CHL1-transfected L929 cells) MMELPLCGRGLILSLIFLLLKLSAAEIPLSVQQVPTIVKQSYVQVAFPFDEYFQIECEAKGNPEPIFSWTKDDKPFDLSDPRIIAANNSGTFKIPNEGHISHFQGKYRCFASNRLGTAVSEEIEFIVPGVPKFPKEKIEPIDVEEGDSIVLPCNPPKGLPPLHIYWMNIELEHIEQDERVYMSQRGDLYFANVEENDSRNDYCCFAAFPKLRTIVQKMPMKLTVNSSNSIKQRKPKLLLPPAQMGSLSAKTVLKGDTLLLECFAEGLPTPHIQWSKPGSELPEGRATIEVHEKTLKIENISYQDRGNYRCTANNLLGKASHDFHVTVEEPPRWKKKPQSAVYSTGSSGILLCEAEGEPQPTIKWRLNGLPIEKHPFPGDFMFPREISFTNLLFNHTGVYQCEASNIHGTILANANIDVIDVIPLIKTKNEENYATVVGYSAFLHCEYFASPKATVVWEVADETHPLEGDRYHTHENGTLEIYRTTEEDAGSYSCWVDNAMGKAVITANLDIRNATKLRVSPKNPRIPKSHVLELYCESQCDSHLKHSLKLSWSKDGEAFEMNGTEDGRIVIDGAYLTISNITAEDQGVYSCSAQTSLDSTSEKTQVTVLGVPDPPETFTCQKDKNRSVRLLREAGDDHNSKSASTIVEFEGNREEPGKWEELTRVQGEETDVVLSLAPYVRYQFRVTAVNEVGRSHASLPSDHHETPPAAPDKNPQNIRVQASQPKEMIIKWEPLKSMEQNGPGLEYKVSWKPQGAPEEWEEEIVTNHTLRVMTPTVYAPYDVKVQAINQLGSSPDPQPVTLYSGEDYPSTAPVIQRVDVMNSTLVKVTWSSIPKETVHGLLRGYQINWWKTKSLLDGRTHPKEVNILRFSGQRNSGMVPSLDPFSEFHLTVLAYNSKGAGPESEPYIFQTPEGVPEQPSFLKVIKVDKDTATLSWGLPKKLNGNLTGYLLQYQIINDTYELGELNEINVTTPSKSSWHLSNLNSTTKYKFYLRACTSRGCGKPISEEGATLGEGSKGIRKITEGVNVTQKIHPVEVLVPGAEHIVHLMTKNWGDNDSIFQDVIETRGREYAGLYDDISTQGWFIGLMCAIALLTLILLTICFVKRNRGGKYSVKEKEDLHPDPEVQSAKDETFGEYSDSDEKPLKGSLRSLNRNMQPTESADSLVEYGEGDQSIFNEDGSFIGAYTGAKEKGSVESNGSSTATFPLRA",neurite outgrowth,hippocampal neurons,Neurite outgrowth is promoted by CHL1 and inhibitable by antibodies
same,neurite outgrowth,cerebellar neurons,promotes neurite outgrowth of small cerebellar neurons

# Source: patent US6576607B1, “Methods using CNS neurite outgrowth modulators” (Acorda Therapeutics, priority 1995, dated 2003)
